Experimental data: patent US20120130129A1, “Efficient Method for Preparing Functionalized Benzosuberenes” (BAYLOR UNIVERSITY, priority 2010, published 2012)
Read-outs that look alike come from different tables or passages of the source.

Assays:
Bovine brain tubulin = assay: Inhibition of tubulin polymerization (turbidimetric tubulin assembly); type: biochemical; conditions: for IC50: 10 μM tubulin, 20 min incubation, 30° C.; for Inhibition of tubulin assembly (in words): comparable to CA1, CA4
Procedure: Bovine brain tubulin was purified using methods previously described by Hamel (Cell Biochem. Biophys. 38:1-21 (2003)). The effect of compounds on tubulin assembly in vitro was determined by using a series of concentrations that were pre-incubated with 10 μM tubulin (1.0 mg/mL) in glutamate buffer at 30° C., followed by cooling to 0° C. After GTP was added, the samples were mixed and transferred to cuvettes at 0° C. in a recording spectrophotometer and warmed to 30° C. to initiate polymerization. Tubulin assembly was observed turbidimetrically at 350 nm. Tubulin disassembly was confirmed by cooling to 0° C. The calculated compound concentration that inhibited tubulin assembly by 50% after a 20 min incubation was defined as the IC50 value.

NCI-H460 (lung) [1] = assay: Sulforhodamine B (SRB) growth inhibition assay; conditions: for GI50: Homo sapiens, NCI-H460, read-out: Cytotoxicity (GI50) NCI-H460
DU-145 (prostate) [2] = assay: Sulforhodamine B (SRB) growth inhibition assay; conditions: for GI50: Homo sapiens, DU-145, read-out: Cytotoxicity (GI50) DU-145
SK-OV-3 (ovarian) [3] = assay: Sulforhodamine B (SRB) growth inhibition assay; conditions: Homo sapiens
human cancer cell lines [4] = assay: Cytotoxicity against human cancer cell lines (SRB assay, whole panel); type: cell-based; conditions: each cell line of Table 2
NCI-H460 (lung) [5] = test system: NCI-H460 (lung)
DU-145 (prostate) [6] = test system: DU-145 (prostate)
SK-OV-3 (ovarian) [7] = test system: SK-OV-3 (ovarian)
human cancer cell lines [8] = conditions: previous studies, U.S. Pat. No. 7,429,681; cited from earlier work
[9] = SK-OV-3, read-out: Cytotoxicity (GI50) SK-OV-3

GI50 (NCI-H460 (lung) [5]) [nM]	GI50 (DU-145 (prostate) [6]) [nM]	GI50 (SK-OV-3 (ovarian) [7]) [nM]	SMILES	also measured
–	–	–	COc1ccc(/C=C\c2cc(OC)c(OC)c(OC)c2)c(O)c1O [CA1, Combretastatin A-1, reference compound]	IC50 (Bovine brain tubulin): 1900 nM
–	–	–	COc1cc(C2=CCCCc3c2ccc(OC)c3[N+](=O)[O-])cc(OC)c1OC [Compound 5, 1-Nitro-2-Methoxy-5-(3′,4′,5′-trimethoxyphenyl)-6,7,8,9-tetrahydro-5H-cyclobenzohepta-6-ene]	GI50 (NCI-H460 (lung) [1]): 666 nM; GI50 (DU-145 (prostate) [2]): 211 nM; GI50 (SK-OV-3 (ovarian) [3]; [9]): 152 nM; Cytotoxicity compared with comparison compounds (in words) (human cancer cell lines [4]): significantly less cytotoxic than any of the comparison compounds; IC50 (Bovine brain tubulin): 2500 nM; Inhibition of tubulin assembly (in words) (Bovine brain tubulin): potent inhibitors of tubulin assembly
–	–	–	COc1ccc2c(c1N)CCCC=C2c1cc(OC)c(OC)c(OC)c1 [Compound 6, 2-Methoxy-5-(3′,4′,5′-trimethoxyphenyl)-6,7,8,9-tetrahydro-5H-cyclobenzohepta-6-ene-1-amine]	GI50 (NCI-H460 (lung) [1]): 4.69 nM; Cytotoxicity (in words) (NCI-H460 (lung) [1]; non-small cell lung cell line): strongly cytotoxic; GI50 (DU-145 (prostate) [2]): 1.11 nM; Cytotoxicity (in words) (DU-145 (prostate) [2]; prostate cell line): strongly cytotoxic; GI50 (SK-OV-3 (ovarian) [3]; [9]): 0.0329 nM; GI50 (SK-OV-3 (ovarian) [3]; SK-OV-3, read-out: GI50 against ovarian cancer): 0.0329 nM; Cytotoxicity compared with comparison compounds (in words) (human cancer cell lines [4]): more active against each cell line than the natural products CA4 and CA1; IC50 (Bovine brain tubulin): 1200 nM; Inhibition of tubulin assembly (in words) (Bovine brain tubulin): potent inhibitors of tubulin assembly
20900	20500	22700	COc1cc2c(c(O)c1O)CCCC=C2c1cc(OC)c(OC)c(OC)c1 [Compound 13, 3-Methoxy-5-(3′,4′,5′-trimethoxyphenyl)-6,7,8,9-tetrahydro-5H-cyclobenzohepta-6-ene-1,2-diol]	–
–	–	–	COc1ccc2c(c1O)CCCC=C2c1cc(OC)c(OC)c(OC)c1 [Compound 23, 2-Methoxy-5-(3′,4′,5′-trimethoxyphenyl)-6,7,8,9-tetrahydro-5H-cyclobenzohepta-6-ene-1-ol]	GI50 (NCI-H460 (lung) [1]): 0.00192 nM; GI50 (DU-145 (prostate) [2]): 0.00242 nM; GI50 (SK-OV-3 (ovarian) [3]; [9]): 0.0242 nM; Cytotoxicity against human cancer cell lines (in words) (human cancer cell lines [8]): picomolar cytotoxicity; IC50 (Bovine brain tubulin): 1700 nM; Inhibition of tubulin assembly (in words) (Bovine brain tubulin): potent inhibitors of tubulin assembly
26.6	9.66	5.94	COc1cc(C2=CCCCc3c2ccc(OC)c3OP(=O)(O)O)cc(OC)c1OC [Compound 24, Disodium 2-Methoxy-5-(3′,4′,5′-trimethoxyphenyl)-6,7,8,9-tetrahydro-5H-cyclobenzohepta-6-ene-1-phosphate]	–
25900	16300	18100	COc1cc(C2=CCCCc3c2cc(OC)c(OC)c3O)cc(OC)c1OC [Compound 36, 1-Hydroxy-2,3-dimethoxy-5-(3′,4′,5′-trimethoxyphenyl)-6,7,8,9-tetrahydro-5H-cyclobenzoheptan-5-ene]	–
83.2	108	39.9	COc1ccc2c(c1Cl)CCCC=C2c1cc(OC)c(OC)c(OC)c1 [Compound 46, 1-Chloro-2-methoxy-5-(3′,4′,5′-trimethoxyphenyl)-6,7,8,9-tetrahydro-5H-cyclobenzoheptan-5-ene]	–
410	783	341	COc1cc(C2(O)CCCCc3c2ccc(O)c3O)cc(OC)c1OC (stereo not shown) [Compound 63, 1,2-Dihydroxy-5-(3′,4′,5′-trimethoxyphenyl)-6,7,8,9-tetrahydro-5H-cyclobenzoheptan-5-ol]	–
32500	22000	19100	COc1cc(C2=CCCCc3ccccc32)cc(OC)c1OC [Compound 65, 5-(3′,4′,5′-trimethoxyphenyl)-6,7,8,9-tetrahydro-5H-cyclobenzohepta-5-ene]	–
–	–	–	COc1cc(C2=CCCCc3c2ccc(OC)c3O)cc(OC)c1O [Compound 71, 9-(4′-Hydroxy-3′,5′-dimethoxyphenyl)-3-methoxy-6,7-dihydro-5H-benzo[7]annulen-4-ol]	GI50 (NCI-H460 (lung) [1]): 439 nM; GI50 (DU-145 (prostate) [2]): 579 nM; GI50 (SK-OV-3 (ovarian) [3]; [9]): 378 nM

SMILES	GI50 (NCI-H460 (lung) [5]) [nM]	GI50 (DU-145 (prostate) [6]) [nM]	GI50 (SK-OV-3 (ovarian) [7]) [nM]	also measured
COc1cc2c(c(OC)c1O)CCCC=C2c1cc(OC)c(OC)c(OC)c1 [Compound 16, 1,3-Dimethoxy-5-(3′,4′,5′-trimethoxyphenyl)-6,7,8,9-tetrahydro-5H-cyclobenzohepta-6-ene-2-ol]	18000	15700	7130	–
COc1ccc2c(c1F)CCCC=C2c1cc(OC)c(OC)c(OC)c1 [Compound 41, 1-Fluoro-2-methoxy-5-(3′,4′,5′-trimethoxyphenyl)-6,7,8,9-tetrahydro-5H-cyclobenzoheptan-5-ene]	4	2.87	0.00724	–
COc1ccc2c(c1)CCCC=C2c1cc(OC)c(OC)c(OC)c1 [Compound 50, 2-Methoxy-5-(3′,4′,5′-trimethoxyphenyl)-6,7,8,9-tetrahydro-5H-cyclobenzoheptan-5-ene]	51	26.1	36.6	–
COc1cc(C2=CCCCc3c2ccc(OC)c3OC)cc(OC)c1OC [Compound 58, 1,2-Dimethoxy-5-(3′,4′,5′-trimethoxyphenyl)-6,7,8,9-tetrahydro-5H-cyclobenzohepta-6-ene]	479	516	641	–
